# From US20220282217A1, “COMPOSITIONS AND METHODS FOR PREPARING T CELL COMPOSITIONS AND USES THEREOF” (priority 2019, published 2022)
# Where two headings read alike, the source gives them in different places. Where a SMILES comes first, the peptide text is derived from it.
# Key:
# HLA-A03.01 = HLA-A03.01 (Homo sapiens, UniProt P04439); assay: Class I MHC peptide binding affinity (displacement of radiolabeled reference peptide); details: allele A03.01; read-out: Observed Affinity (IC50; (nM))
# HLA-A02.01 [1] = target: T1, HLA-A02.01 (Homo sapiens, UniProt P04439, D140Y/D185E/D98H/E176V/E277Q/G131W/G231S/I119V/I121R/I166T/I218V/N151K/N90K/P208A/P217A/Q86G/Q94H/R138H/R169H); assay: Class I MHC peptide binding stability (pMHC-I dissociation, 125I-labeled light chain); details: for Stability (T1/2 (h)): allele A02.01; for Measured stability: HLA Allele A02.01, time for half of the complexes to dissociate at 37° C.
# T1 construct: made in house; host or cells: E. coli
# HLA-A02.01 [2] = target: HLA-A02.01 (Homo sapiens, UniProt P04439, D140Y/D185E/D98H/E176V/E277Q/G131W/G231S/I119V/I121R/I166T/I218V/L300P/L318F/N151K/N90K/P208A/P217A/Q86G/Q94H/R138H/R169H/T345S); assay: Class I MHC peptide binding affinity (displacement of radiolabeled reference peptide)
# Outline: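 MHC class I complexes were loaded with a radiolabeled reference peptide, then exposed to test peptides over a range of concentrations for 2 days. Reference peptide still bound to the complexes was quantified by size-exclusion gel filtration.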
# [3] = allele A02.01, read-out: Observed Affinity (IC50, (nM))
# [4] = Observed Affinity (IC50, (nM)), allele A02.01
# [5] = Measured Affinity (nM), HLA Allele A02.01
Compound,Stability (T1/2 (h)) (HLA-A02.01 [1]) [h],IC50 (HLA-A02.01 [2]; [3]) [nM],also measured
CC[C@H](C)[C@H](NC(=O)[C@H](CS)NC(=O)[C@H](Cc1ccccc1)NC(=O)[C@H](CC(N)=O)NC(=O)[C@H](C)NC(=O)[C@H](CC(C)C)NC(=O)[C@@H](N)CS)C(=O)N[C@@H](Cc1ccccc1)C(=O)N[C@@H](CC(N)=O)C(=O)N[C@@H](CCCNC(=N)N)C(=O)O,–,–,IC50 (HLA-A03.01): 222 nM
CC(C)C[C@H](NC(=O)[C@@H](NC(=O)[C@H](CO)NC(=O)[C@H](CO)NC(=O)[C@H](CC(C)C)NC(=O)[C@@H](N)CCCNC(=N)N)C(C)C)C(=O)N[C@@H](CCC(N)=O)C(=O)N[C@@H](CCCNC(=N)N)C(=O)N[C@@H](Cc1ccccc1)C(=O)N[C@@H](CCCNC(=N)N)C(=O)O,–,–,IC50 (HLA-A03.01): 12.5 nM
CSCC[C@H](NC(=O)[C@H](CCC(=O)O)NC(=O)[C@H](CC(C)C)NC(=O)[C@H](CC(C)C)NC(=O)[C@H](CC(C)C)NC(=O)CN)C(=O)N[C@@H](CC(C)C)C(=O)N[C@@H](CC(=O)O)C(=O)N[C@@H](C)C(=O)O (H-GLLLEMLDA-OH; N-terminus and C-terminus assumed),0.4,558,–
CC(C)C[C@H](NC(=O)[C@H](Cc1ccccc1)NC(=O)[C@@H](NC(=O)[C@H](Cc1ccc(O)cc1)NC(=O)[C@@H](NC(=O)CN)C(C)C)[C@@H](C)O)C(=O)N1CCC[C@H]1C(=O)N[C@@H](CO)C(=O)N[C@H](C(=O)O)[C@@H](C)O (H-GVYTFLPST-OH; N-terminus and C-terminus assumed),1.3,779,–
CC[C@H](C)[C@H](N)C(=O)N[C@@H](CCSC)C(=O)N[C@@H](CCC(N)=O)C(=O)N[C@@H](CC(C)C)C(=O)N[C@@H](CCSC)C(=O)N1CCC[C@H]1C(=O)N[C@@H](Cc1ccccc1)C(=O)NCC(=O)N[C@@H](CS)C(=O)O (H-IMQLMPFGC-OH; N-terminus and C-terminus assumed),0.4,1610,"Stability (half-life (hr.)) (HLA-A02.01 [1]; EGFR T790M peptides, HLA allele A02.01): 0.3701 h; Kd (HLA-A02.01 [2]; EGFR T790M peptides, HLA allele A02.01, read-out: Affinity): 1210 nM"
CC(C)C[C@H](NC(=O)[C@@H](N)CCCCN)C(=O)NCC(=O)NCC(=O)NCC(=O)N[C@@H](CCC(N)=O)C(=O)N[C@@H](Cc1c[nH]cn1)C(=O)NCC(=O)N[C@@H](CCC(=O)O)C(=O)N[C@H](C(=O)O)C(C)C (H-KLGGGQHGEV-OH; N-terminus and C-terminus assumed),0.4,–,IC50 (HLA-A02.01 [2]; [4]): 387 nM
CC(C)C[C@H](N)C(=O)N[C@H](C(=O)N[C@H](C(=O)N[C@H](C(=O)NCC(=O)N[C@@H](C)C(=O)N[C@@H](CS)C(=O)NCC(=O)N[C@H](C(=O)O)C(C)C)C(C)C)C(C)C)C(C)C (H-LVVVGACGV-OH; N-terminus and C-terminus assumed),0.6,–,Measured stability (HLA-A02.01 [1]): 0.6 h; IC50 (HLA-A02.01 [2]; [5]): 667 nM; IC50 (HLA-A02.01 [2]; [4]): 1210 nM
CC(C)C[C@H](N)C(=O)N[C@H](C(=O)N[C@H](C(=O)N[C@H](C(=O)NCC(=O)N[C@@H](C)C(=O)N[C@@H](CC(=O)O)C(=O)NCC(=O)N[C@H](C(=O)O)C(C)C)C(C)C)C(C)C)C(C)C (H-LVVVGADGV-OH; N-terminus and C-terminus assumed),–,–,Measured stability (HLA-A02.01 [1]): 0.0 h; IC50 (HLA-A02.01 [2]; [5]): 977 nM; IC50 (HLA-A02.01 [2]; [4]): 1190 nM
CC[C@H](C)[C@H](NC(=O)[C@H](CC(N)=O)NC(=O)[C@@H](N)CCSC)C(=O)N[C@@H](C)C(=O)N[C@@H](CC(N)=O)C(=O)N[C@@H](CC(C)C)C(=O)N[C@@H](CC(C)C)C(=O)NCC(=O)N[C@@H](C)C(=O)O (H-MNIANLLGA-OH; N-terminus and C-terminus assumed),0.3,–,IC50 (HLA-A02.01 [2]; [4]): 128 nM
CSCC[C@H](NC(=O)[C@H](CCC(=O)O)NC(=O)[C@H](CC(C)C)NC(=O)[C@H](CC(C)C)NC(=O)[C@H](CC(C)C)NC(=O)[C@H](CC(=O)O)NC(=O)[C@H](CS)NC(=O)[C@H](CC(C)C)NC(=O)[C@@H]1CCCN1)C(=O)O (H-PLCDLLLEM-OH; N-terminus and C-terminus assumed),0.8,602,–
CSCC[C@H](NC(=O)[C@H](CCC(=O)O)NC(=O)[C@H](CC(C)C)NC(=O)[C@H](CC(C)C)NC(=O)[C@H](CC(C)C)NC(=O)[C@H](CC(=O)O)NC(=O)[C@H](CS)NC(=O)[C@H](CC(C)C)NC(=O)[C@@H]1CCCN1)C(=O)N[C@@H](CC(C)C)C(=O)O (H-PLCDLLLEML-OH; N-terminus and C-terminus assumed),0.9,2010,–
CSCC[C@H](NC(=O)[C@H](CCC(=O)O)NC(=O)[C@H](CC(C)C)NC(=O)[C@H](CC(C)C)NC(=O)[C@H](CC(C)C)NC(=O)[C@H](CC(=O)O)NC(=O)[C@H](CO)NC(=O)[C@H](CC(C)C)NC(=O)[C@@H]1CCCN1)C(=O)O (H-PLSDLLLEM-OH; N-terminus and C-terminus assumed),2.7,404,–
CSCC[C@H](NC(=O)[C@H](CCC(=O)O)NC(=O)[C@H](CC(C)C)NC(=O)[C@H](CC(C)C)NC(=O)[C@H](CC(C)C)NC(=O)CNC(=O)[C@H](Cc1ccc(O)cc1)NC(=O)[C@H](CC(C)C)NC(=O)[C@@H]1CCCN1)C(=O)O (H-PLYGLLLEM-OH; N-terminus and C-terminus assumed),0.7,640,–
CC[C@H](C)[C@H](NC(=O)[C@H](Cc1ccc(O)cc1)NC(=O)[C@H](CC(C)C)NC(=O)[C@@H](N)CO)C(=O)N[C@H](C(=O)NCC(=O)N[C@@H](Cc1ccccc1)C(=O)N[C@@H](Cc1ccc(O)cc1)C(=O)NCC(=O)N[C@@H](C)C(=O)O)C(C)C (H-SLYIVGFYGA-OH; N-terminus and C-terminus assumed),0.4,390,–

# Further compounds by falling IC50 (HLA-A02.01 [2]; [3]), results first:
Stability (T1/2 (h)) (HLA-A02.01 [1]) [h],IC50 (HLA-A02.01 [2]; [3]) [nM],Compound,also measured
8.9,311,CSCC[C@H](NC(=O)[C@H](CC(C)C)NC(=O)[C@H](CCC(=O)O)NC(=O)[C@H](CCSC)NC(=O)[C@@H](N)CC(C)C)C(=O)N[C@@H](C)C(=O)NCC(=O)NCC(=O)N[C@@H](CC(=O)O)C(=O)N[C@@H](CC(C)C)C(=O)O (H-LMELMAGGDL-OH; N-terminus and C-terminus assumed),–
0.5,223,CC[C@H](C)[C@H](N)C(=O)N[C@@H](CC(C)C)C(=O)N[C@@H](CCSC)C(=O)N[C@@H](CCC(=O)O)C(=O)N[C@@H](CC(C)C)C(=O)N[C@@H](CCSC)C(=O)N[C@@H](C)C(=O)NCC(=O)NCC(=O)O (H-ILMELMAGG-OH; N-terminus and C-terminus assumed),–
4.2,151,CSCC[C@H](NC(=O)[C@H](CCC(=O)O)NC(=O)[C@H](CC(C)C)NC(=O)[C@H](CC(C)C)NC(=O)[C@H](CC(C)C)NC(=O)[C@H](CC(=O)O)NC(=O)[C@H](CC(N)=O)NC(=O)[C@H](CC(C)C)NC(=O)[C@@H]1CCCN1)C(=O)O (H-PLNDLLLEM-OH; N-terminus and C-terminus assumed),–
1.9,131,CC[C@H](C)[C@H](NC(=O)[C@H](Cc1ccc(O)cc1)NC(=O)[C@@H]1CCCN1C(=O)[C@H](CO)NC(=O)[C@H](CC(N)=O)NC(=O)[C@H](CO)NC(=O)[C@H](CCC(=O)O)NC(=O)[C@H](Cc1c[nH]cn1)NC(=O)[C@H](CC(C)C)NC(=O)[C@@H](N)C(C)C)C(=O)O (H-VLHESNSPYI-OH; N-terminus and C-terminus assumed),–
11,72,CC[C@H](C)[C@H](NC(=O)[C@H](CC(C)C)NC(=O)[C@H](Cc1c[nH]cn1)NC(=O)[C@@H](NC(=O)[C@H](CO)NC(=O)[C@H](CC(C)C)NC(=O)[C@H](CC(C)C)NC(=O)[C@@H](N)C(C)C)C(C)C)C(=O)N[C@H](C(=O)O)C(C)C (H-VLLSVHLIV-OH; N-terminus and C-terminus assumed),–
12.8,68,CC(C)C[C@H](NC(=O)[C@@H](N)CC(C)C)C(=O)N[C@@H](C)C(=O)N[C@@H](Cc1ccccc1)C(=O)N[C@@H](Cc1c[nH]c2ccccc12)C(=O)N[C@@H](CC(=O)O)C(=O)N[C@@H](CO)C(=O)N[C@@H](CCC(N)=O)C(=O)N[C@H](C(=O)O)C(C)C (H-LLAFWDSQV-OH; N-terminus and C-terminus assumed),–
1.5,68,LQMDFLVEIPA,–
9.8,31,CSCC[C@H](NC(=O)[C@@H](N)CO)C(=O)N[C@@H](CC(C)C)C(=O)N[C@H](C(=O)N[C@@H](CC(=O)O)C(=O)N[C@@H](CO)C(=O)N[C@@H](CC(C)C)C(=O)N[C@@H](Cc1ccccc1)C(=O)N[C@@H](CC(C)C)C(=O)O)[C@@H](C)O (H-SMLTDSLFL-OH; N-terminus and C-terminus assumed),–
14.2,10,CC(C)C[C@H](NC(=O)CN)C(=O)N[C@@H](CC(C)C)C(=O)N[C@@H](C)C(=O)N[C@@H](Cc1ccccc1)C(=O)N[C@@H](Cc1c[nH]c2ccccc12)C(=O)N[C@@H](CC(=O)O)C(=O)N[C@@H](CO)C(=O)N[C@@H](CCC(N)=O)C(=O)N[C@H](C(=O)O)C(C)C (H-GLLAFWDSQV-OH; N-terminus and C-terminus assumed),–
16.5,2,CSCC[C@H](NC(=O)[C@@H](N)C(C)C)C(=O)N[C@@H](C)C(=O)N[C@@H](Cc1ccc(O)cc1)C(=O)N[C@H](C(=O)N[C@@H](CCSC)C(=O)N[C@@H](C)C(=O)NCC(=O)N[C@H](C(=O)O)C(C)C)C(C)C (H-VMAYVMAGV-OH; N-terminus and C-terminus assumed),–
